Like-named read-outs stand apart in the source and are kept apart here.
Experiments:
influenza virus = assay: Influenza therapeutic mouse model (in vivo efficacy); parameters: species or system Balb/c mice; details: dosing @ 48 hours post infection, 30 mg/kg BID × 10 days; for Percent Survival / Percent Weight Loss (Day 8): Balb/c mice; for Percent Survival: scored 21 days; for Percent Weight Loss (Day 8): post challenge day 8; for WBP (Penh; Day 6): whole body plethysmography, enhanced pause
[1] = system: influenza A virus (A/PR/8/34); assay: microbe, parasite or virus in culture; assay type: cell-based; details: for bDNA EC99 (uM), class / bDNA EC99: Table 2
[2] = system: influenza A virus (A/PR/8/34); assay: MDCK cytopathic effect (CPE) cell protection assay, ATP detection; assay type: cell-based; details: Influenza A virus, PR/8, MDCK
[3] = Influenza A virus, PR/8, Table 1, mean all, class symbol, read-out: bDNA EC99
[4] = Influenza A virus, PR/8, Table 1, viral RNA 50% of control wells, mean all, class symbol, read-out: bDNA EC50
[5] = Influenza A virus, PR/8, exemplary data, bDNA, read-out: EC50
[6] = 72 h, Table 1, MDCK cells, A/PR/8/34, 72 hours, 50% cell protection, mean all, class symbol, read-out: MDCK IC50
[7] = exemplary data, MDCK cell protection, read-out: IC50
[8] = Influenza A virus, PR/8, Table 2, class symbol in brackets, read-out: bDNA EC50 (uM), class
[9] = Influenza A virus, PR/8, Table 2, comparison compounds of WO2005/095400, mean value, read-out: bDNA EC50
[10] = comparison compounds of WO2005/095400, mean value
[11] = Table 2, class symbol in brackets, read-out: MDCK cell IC50 (uM), class
[12] = Table 2, comparison compounds of WO2005/095400, mean value, read-out: MDCK cell IC50

| Compound | Percent Survival (influenza virus) [%] | Percent Weight Loss (Day 8) (influenza virus) [%] | WBP (Penh; Day 6) (influenza virus) | EC99 [1, 3] [µM] | EC50 [1, 4] [µM] | EC50 [1, 5] [µM] | EC99 ([1]; exemplary data, bDNA) [µM] | IC50 [2, 6] [µM] | IC50 [2, 7] [µM] | EC50 [1, 8] [µM] | EC50 [1, 9] [µM] | bDNA EC99 (uM), class ([1]; class symbol in brackets) | bDNA EC99 [1, 10] [µM] | IC50 [2, 11] [µM] | IC50 [2, 12] [µM] |
| --- | --- | --- | --- | --- | --- | --- | --- | --- | --- | --- | --- | --- | --- | --- | --- |
| CC(C)(C)[C@@H](CC(=O)O)Nc1nc(-c2c[nH]c3ncc(Cl)cc23)ncc1F [Compound 1, (R)-3-(2-(5-Chloro-1H-pyrrolo[2,3-b]pyridin-3-yl)-5-fluoropyrimidin-4-ylamino)-4,4-dimethylpentanoic acid] | 100 | 26.6 | 1.88 | < 0.3 | < 0.3 | 0.009 | 0.0094 | < 0.3 | 0.006 |  |  |  |  |  |  |
| CC(C)(C)[C@@H](CC(=O)O)Nc1nc(-c2c[nH]c3ncc(F)cc23)ncc1F [Compound 2, (R)-3-((5-fluoro-2-(5-fluoro-1H-pyrrolo[2,3-b]pyridin-3-yl)pyrimidin-4-yl)amino)-4,4-dimethylpentanoic acid] | 100 | 14 | 2.03 | < 0.3 | < 0.3 | 0.009 | 0.0063 | < 0.3 | 0.004 |  |  |  |  |  |  |
| CC(C)(C)[C@@H](CC(=O)O)Nc1nc(-c2n[nH]c3ncc(Cl)cc23)ncc1F [Compound 97, (R)-3-((2-(5-chloro-1H-pyrazolo[3,4-b]pyridin-3-yl)-5-fluoropyrimidin-4-yl)amino)-4,4-dimethylpentanoic acid] |  |  |  | < 0.3 | < 0.3 |  |  | < 0.3 |  |  |  |  |  |  |  |
| CNC(=O)[C@H](C)Nc1nc(-c2c[nH]c3ncc(Cl)cc23)ncc1F [Compound C3, reference compound] |  |  |  |  |  |  |  |  |  | > 3.3 | 3.38 | C (EC99 (mean all)>3.3 μM) | 9.37 | > 3.3 | > 20 |
| C[C@@H](CC(=O)O)Nc1nc(-c2c[nH]c3ncc(Cl)cc23)ncc1F [Compound C4, reference compound] |  |  |  |  |  |  |  |  |  | > 3.3 | 6.4 | C (EC99 (mean all)>3.3 μM) | > 16.7 | 0.3 to 3.3 | 2.33 |
